Results published in patent publication US11130960B2, “Methods for conferring or enhancing herbicide resistance on plants and/or alga with protoporphyrinogen oxidase variants” (FARM HANNONG CO., LTD., priority 2014, dated 2021).

Tests used:
Test in all cases: Growth inhibition of BT3(ΔPPO) E. coli transformed with 98% homology variant, LB solid medium
Conditions in all cases: 1% agar LB solid medium, 37° C., 14~16 hours, light
[1] = test system: CyPPO2 variant; assay type: cell-based, Oscillatoria nigro-viridis PCC 7112
Text: (§1) To investigate amino acid sequence homology range of CyPPO2, CyPPO4 and CyPPO8 which maintain herbicide resistance, a part of the amino acid sequence of CyPPO2, CyPPO4 or CyPPO8 protein was replaced by a part of the amino acid sequence of NtPPO (tobacco-derived PPO gene). As a result, the amino acid sequence of the resulting CyPPO2 variant is represented by SEQ ID NO: 12, and its nucleotide sequence thereof is represented by SEQ ID NO: 13. […] Further, the amino acid sequence of the CyPPO4 variant is represented by SEQ ID NO: 14, and its nucleotide sequence thereof is represented by SEQ ID NO: 15. […] Further, the amino acid sequence of the CyPPO8 variant is represented by SEQ ID NO: 16, and its nucleotide sequence thereof is represented by SEQ ID NO: 17.
(§2) Herbicide resistance of the amino acid sequence variant of CyPPO2, the amino acid sequence variant of CyPPO4, and the amino acid sequence variant of CyPPO8 was investigated in PPO-deficient BT3 E. coli [BT3(ΔPPO)], and a specific experimental method is similar to that of Example 3. In the same manner as in Example 3, as a negative control, the wild-type PPO (wild-type AtPPO1) of Arabidopsis thaliana was employed as a reference for herbicide-sensitivity. As a positive control, the mutant AtPPO1 which was prepared by amino acid replacement of Y426M and S305L in the wild-type amino acid sequence was employed as a reference for herbicide-resistance.
(§3) An autoclave was used under conditions of 121° C. and 15 minutes, and an incubator was used at 37° C. with lighting of 169 μmol m^−2 s^−1 for a culture time of 14˜16 hours. A UV-visible spectrophotometer was used at 600 nm. PCR was performed under conditions of at 94° C. for 4 minutes, and 25 cycles (at 94° C. for 30 seconds, at 56˜60° C. for 30 seconds and at 72° C. for 3 minutes), at 72° C. for 5 minutes and at 4° C. for 5 minutes. Respective herbicides were prepared at a concentration of 200 mM in DMSO, and stored at −20° C. Before use, the herbicides were diluted and added to LB broth medium (containing […]).
(§4) Saturated cells were inoculated in 3 ml of LB liquid medium containing chloramphenicol, and then cultured at 37° C., 200 rpm for 5 hours. Density of the cultured cells was measured at 600 nm, and the transformants were diluted with LB liquid medium to have the same absorbance (OD600) per 1 ml thereof (OD600=0.5). Agar was added to LB liquid medium at a concentration of 1%, and then autoclaved. Chloramphenicol (34 μg/ml) and herbicide were added and mixed. Cells diluted equally was diluted at a density of 10^0, 10^−1, 10^−2, 10^−3, 10^−4, and 10^−5. Each 10 μl of the cells was dropped on 1% agar, LB solid medium, and cultured in a 37° C. incubator for 14˜16 hours (light condition: 169 μmol m^−2s^−1).
(§5) To prepare BT3(ΔPPO) competent cells, BT3(ΔPPO) strain was added to 5 ml of LB broth containing 50 μg/ml kanamycin and 20 μg/ml hematin, and cultured in a 37° C. shaking incubator for 12 hours in the dark. Thereafter, 5 ml of the culture was added to 100 ml of LB broth containing 20[…] μg/ml hematin, and cultured in a 37° C. shaking incubator in the dark until OD600 reached 0.5. BT3(ΔPPO) competent cells were prepared from the cultured E. coli using CaCl2 according to protocols for preparing competent cells. Next, to transform the BT3(ΔPPO) strain with the respective vectors harboring the CyPPO2 variant, CyPPO4 variant and CyPPO8 variant, 5 μl of the vector was added to 100 μl of BT3(ΔPPO) competent cells, and the mixture was mixed well, allowed to react on ice for 20 minutes, and then left at 42° C. for 40 seconds. After stabilization on ice for 2 minutes, 1 ml of LB broth was added to BT3(ΔPPO), and cultured at 37° C. for 1 hour with shaking. The cells cultured in the medium were collected according to the type of the gene insert, and then spread on LB solid medium containing chloramphenicol (34 μg/ml), and cultured at 37° C. for 12 hours or longer. Thereafter, single colonies thereof were cultured in LB liquid medium. […]

[2] = test system: CyPPO4 variant; assay type: cell-based, Lyngbya sp. PCC 8106
Text: as §1, §2, §3, §4, §5

[3] = test system: CyPPO8 variant; assay type: cell-based, Halothece sp. PCC 7418
Text: as §1, §2, §3, §4, §5

Measured: concentration at which growth inhibition was hardly observed

O=C(O)c1cc(Oc2ccc(C(F)(F)F)cc2Cl)ccc1[N+](=O)[O-] [Acifluorfen]
25 µM: all assays above

C=CCOC(=O)C(C)(C)OC(=O)c1cc(-n2c(=O)cc(C(F)(F)F)n(C)c2=O)ccc1Cl [Butafenacil]
25 µM: all assays above

C#CCN1C(=O)COc2cc(F)c(N3C(=O)C4=C(CCCC4)C3=O)cc21 [Flumioxazin]
25 µM: all assays above

COC(=O)CSc1cc(/N=c2\sc(=O)n3n2CCCC3)c(F)cc1Cl [Fluthiacet-methyl]
25 µM: all assays above

CS(=O)(=O)NC(=O)c1cc(Oc2ccc(C(F)(F)F)cc2Cl)ccc1[N+](=O)[O-] [Fomesafen]
25 µM: all assays above

CC(C)Oc1cc(-n2nc(C(C)(C)C)oc2=O)c(Cl)cc1Cl [Oxadiazon]
25 µM: all assays above

CCOc1cc(Oc2ccc(C(F)(F)F)cc2Cl)ccc1[N+](=O)[O-] [Oxyfluorfen]
25 µM: all assays above

CC(C)=C1OC(=O)N(c2cc(OC3CCCC3)c(Cl)cc2F)C1=O [Pentoxazone]
25 µM: all assays above

C#CCN(C)c1c(C#N)cnn1-c1nn2c(c1Cl)CCCC2 [Pyraclonil]
25 µM: all assays above

CCOC(=O)COc1cc(-c2nn(C)c(OC(F)F)c2Cl)c(F)cc1Cl [Pyraflufen-ethyl]
25 µM: all assays above

CC(C)N(C)S(=O)(=O)NC(=O)c1cc(-n2c(=O)cc(C(F)(F)F)n(C)c2=O)c(F)cc1Cl [Saflufenacil]
25 µM: all assays above

Cc1nn(-c2cc(NS(C)(=O)=O)c(Cl)cc2Cl)c(=O)n1C(F)F [Sulfentrazone]
25 µM: all assays above

COC(=O)CCNC(=O)C(C)Sc1cc(-n2c(=O)cc(C(F)(F)F)n(C)c2=O)c(F)cc1Cl (stereo not drawn) [Tiafenacil]
25 µM: all assays above
